The values that follow come from patent US6576607B1, “Methods using CNS neurite outgrowth modulators” (Acorda Therapeutics, priority 1995, dated 2003).

For experiment [1], the system named is pyramidal neurons in the CA1 region of rat hippocampal slices. Description: Long term potentiation (LTP) induced by theta burst stimulation in hippocampal slices. Format: cell-based. Particulars: perfusion of 10 μM. As for the experimental part: Transverse hippocampal slices (400 μm) from halothane-anaesthetized male Wistar rats (180-220 g) were prepared using standard techniques. Slices were maintained in an interface chamber and initially allowed to recover for 45 min. in a hyperosmolar (320 mOsm/kg) artificial cerebrospinal fluid (ACSF) at room temperature. The bath temperature was then raised to 30° C. and the medium was changed to a normotonic ACSF (307 mOsm/kg) containing (in mM): NaCl, 124.0; KCl, 2.5; MgSO24, 2.0: CaCl2, 2.5; KH2PO4, 1.25; NaHCO3, 26.0; glucose, 10; sucrose, 4; bubbled with 95% O2/5% CO2 (pH 7.4); perfusion rate: 0.75 ml/min. The Schaffer collateral/commissural fibers were stimulated by twisted platinum-iridium wires (50 μm diameter) placed in the stratum radiatum of the CA1 region. Test stimuli consisted in monophasic impulses of 100 μs duration every 30 seconds and the stimulus strength was adjusted to obtain 30% of the maximal EPSP amplitude (maximal EPSP without superimposed population spike). EPSP's were recorded from the CA1 stratum radiatum by means of 2 glass micropipettes (2 M NaCl, 1-5 MΩ) positioned about […] apart from the stimulation electrode on each side. […]

Another experiment deals with NMDA receptor. The experiment in a line: NMDA receptor-mediated EPSPs in hippocampal slices. Format: cell-based, rat. Particulars: 30 μM, in the presence of CNQX. Here is the method: NMDA receptor-mediated EPSP's were isolated by applying 30 μM of the non-NMDA blocker 6-cyano-7-nitroquinoxaline-2,3-dione (CNQX; Tocris) starting 20 minutes prior to the application of antibodies or glycopeptides.

Experiment [2] concerns mouse mesencephalon cells. The experiment in a line: Mesencephalon cells cultured on L1-coated plates, stained for dopamine. Particulars: plates coated with laminin, 7 days. Format: cell-based. As for the experimental part:
An experiment was performed to further elucidate the activity of L1 with CNS nerve tissue. Specifically, aliquot samples of mouse mesencephalon cells were plated and cultured on four separate plates having media prepared as follows: the first control plate was coated with poly-L-lysine alone; a second plate was coated with poly-L-lysine and L1; a third control plate was coated with poly-L-lysine and laminin; and a fourth plate was coated with poly-L-lysine, laminin and L1. All plates received aliquot amounts of cells and were incubated under identical conditions. After 7 days, the plates were all stained for the presence of dopamine and thereafter observed.

Experiment [3] relates to mesencephalic neurons (DBH+). Description: Survival and neurite outgrowth of DBH+ mesencephalic neurons. Type of experiment: cell-based, rat. Particulars: DBH+ neurons after 7 days in vitro, mean ± SEM. Here is the method: Soluble L1 was made in COS cells as a recombinant L1-Fc fusion protein by the procedure described in Neuron 14:57-66, 1995. The recombinant protein was purified by Protein A affinity chromatography, and was used either as a substrate coated onto plastic or as a soluble molecule added to the culture medium at approximately 1-10 μg/ml. Neurite outgrowth and survival of mesencephalic neurons from day 17 rat embryos were examined in culture after 7 days in vitro maintenance. Dopaminergic neurons were recognized by immunostaining for dopamine-β-hydroxylase (DBH) and quantified using IBAS morphometric equipment. Cultures with added soluble L1-Fc were maintained on poly-DL-ornithine (PORN) and substrate-coated L1-Fc was added on top of previously coated PORN (under conditions described in Appel et al, J. Neuroscience 13:4764-4775, 1993). NCAM-Fc was used as a control.

The next experiment deals with small cerebellar neurons. Description: Neurite outgrowth of small cerebellar neurons on substrate-coated L1 monoclonal antibodies. Type of experiment: cell-based. Particulars: neurons on L1 and antibody 557.B6. From the text: To determine the domains of neural cell adhesion molecule L1 involved in neurite outgrowth, monoclonal antibodies against L1 were generated and their effects on neurite outgrowth of small cerebellar neurons in culture investigated. […] These observations indicate for the first time a distinct site on cell surface-bound L1 as a prominent signal transducing domain through which the recognition events appear to be funnelled to trigger neurite outgrowth, increase turnover of inositol phosphates and elevate intracellular levels of Ca^2+.

For the next experiment, the system named is hippocampal neurons. Description: Neurite outgrowth of hippocampal neurons in coculture with L929 transfectants. Type of experiment: cell-based, rat. Particulars: CHL1-transfected L929 cells, 11-12 h coculture. As for the experimental part: In addition to the studies conducted and reviewed above, further experiments were conducted withy CHL1 to define its role in neurite outgrowth and the parameters of its action. Thus and as depicted and described earlier with reference to FIGS. 28A-C, hippocampal neurons were co-cultured with L929 transfectants and L929 parental cells. Particularly, hippocampal neurons derived from rats of embryonal day 18 were cultured in subconfluent monolayers of L929-transfectants or parental L929 cells. After 11-12 h of coculture the cells were fixed and labeled with monoclonal antibody 412 (recognizing the HNK-1 carbohydrate epitope) or a polyclonal antibody against NCAM. For measurement of the total neurite length only the longest neurite per each branch was determined due to the highly branched character of the neurons in these cultures. The results of the experiments are given below with letter reference to the respective figures within FIG. 28. […] Neurons were cocultured with CHL1-transfectants (CHL1) or parental L929 cells (L929) with (+AB) or without polyclonal antibodies against recombinant CHL1 (500 μg/ml of purified IgG, added 45 min after plating) and on L1-transfectants. The mean total neurite length of 4-5 independent experiments is shown. Error bars are standard error of the mean. (B) Different CHL1 lines promote neurite outgrowth better than L1. […]

In the next experiment the test system is cerebellar neurons. The experiment in a line: Neurite outgrowth of small cerebellar neurons in coculture with L929 transfectants. Type of experiment: cell-based, mouse. Particulars: CHL1-transfected L929 cells, 20 h. Here is the method:
CHL1 activity was also tested with cerebellar neurons as set forth with reference to FIG. 29. Thus, cerebellar neurons derived from 6-7 day old mice were cultured for 20 h on CHL1-transfectants (CHL1), CHL1-transfected non-expressing L929 cells (Mock), parental L929, or L1-transfectants (L1). The results are likewise set forth in paragraphs that correspond in designation to the sub-figures within FIG. 29. […] The mean of total neurite length of three experiments is shown. Error bars are standard error of the mean. (B) CHL1 promotes neurite outgrowth also of small cerebellar neurons better than L1. The total neurite length is given as percent of L929 cells as a control (ctr). Error bars are standard error of the mean. (C) Increase of neurite outgrowth of cerebellar neurons by CHL1 affects all size classes of neurites. Cumulative frequency of distribution plot of the total neurite length of the percentage of neurons with neurites longer than or equal to a certain length x (vertical axis) was plotted as a function of neurite length x (horizontal axis).

For `N[C@H](CCCP(=O)(O)O)C(=O)O` [D-AP5, D(−)-2-amino-5-phosphonopentanoic acid], the “induction of LTP” value in experiment [1] is on record as “totally prevented”. The “NMDA receptor-mediated EPSPs” value in the experiment with NMDA receptor is reported as “completely suppressed”. As for laminin, the “neurite outgrowth and cell number” value in experiment [2] is “greater neurite outgrowth, but not more cells than those coated with L1”. Regarding “soluble L1: recombinant L1-Fc fusion protein made in COS cells, added to the culture medium at 1-10 μg/ml”, in experiment [3] (per unit field), the number of neurons is on record as 98 ± 7. Further, the “length of neurites (total neurite length per neuron)” value in experiment [3] turned out to be 135 ± 27 μm. On to pertussis toxin, for which the “inhibition of neurite outgrowth” value in the experiment with small cerebellar neurons is “inhibit neurite outgrowth on L1 and antibody 557.B6”.

B1: CHL1: close homolog of L1, presented by CHL1-transfected L929 cells (protein)
chain: MMELPLCGRGLILSLIFLLLKLSAAEIPLSVQQVPTIVKQSYVQVAFPFDEYFQIECEAKGNPEPIFSWTKDDKPFDLSDPRIIAANNSGTFKIPNEGHISHFQGKYRCFASNRLGTAVSEEIEFIVPGVPKFPKEKIEPIDVEEGDSIVLPCNPPKGLPPLHIYWMNIELEHIEQDERVYMSQRGDLYFANVEENDSRNDYCCFAAFPKLRTIVQKMPMKLTVNSSNSIKQRKPKLLLPPAQMGSLSAKTVLKGDTLLLECFAEGLPTPHIQWSKPGSELPEGRATIEVHEKTLKIENISYQDRGNYRCTANNLLGKASHDFHVTVEEPPRWKKKPQSAVYSTGSSGILLCEAEGEPQPTIKWRLNGLPIEKHPFPGDFMFPREISFTNLLFNHTGVYQCEASNIHGTILANANIDVIDVIPLIKTKNEENYATVVGYSAFLHCEYFASPKATVVWEVADETHPLEGDRYHTHENGTLEIYRTTEEDAGSYSCWVDNAMGKAVITANLDIRNATKLRVSPKNPRIPKSHVLELYCESQCDSHLKHSLKLSWSKDGEAFEMNGTEDGRIVIDGAYLTISNITAEDQGVYSCSAQTSLDSTSEKTQVTVLGVPDPPETFTCQKDKNRSVRLLREAGDDHNSKSASTIVEFEGNREEPGKWEELTRVQGEETDVVLSLAPYVRYQFRVTAVNEVGRSHASLPSDHHETPPAAPDKNPQNIRVQASQPKEMIIKWEPLKSMEQNGPGLEYKVSWKPQGAPEEWEEEIVTNHTLRVMTPTVYAPYDVKVQAINQLGSSPDPQPVTLYSGEDYPSTAPVIQRVDVMNSTLVKVTWSSIPKETVHGLLRGYQINWWKTKSLLDGRTHPKEVNILRFSGQRNSGMVPSLDPFSEFHLTVLAYNSKGAGPESEPYIFQTPEGVPEQPSFLKVIKVDKDTATLSWGLPKKLNGNLTGYLLQYQIINDTYELGELNEINVTTPSKSSWHLSNLNSTTKYKFYLRACTSRGCGKPISEEGATLGEGSKGIRKITEGVNVTQKIHPVEVLVPGAEHIVHLMTKNWGDNDSIFQDVIETRGREYAGLYDDISTQGWFIGLMCAIALLTLILLTICFVKRNRGGKYSVKEKEDLHPDPEVQSAKDETFGEYSDSDEKPLKGSLRSLNRNMQPTESADSLVEYGEGDQSIFNEDGSFIGAYTGAKEKGSVESNGSSTATFPLRA
modifications: murine
notes: close homolog of L1, presented by CHL1-transfected L929 cells
Turning to B1, the neurite outgrowth result in the experiment with hippocampal neurons was “Neurite outgrowth is promoted by CHL1 and inhibitable by antibodies”; with cerebellar neurons, “promotes neurite outgrowth of small cerebellar neurons”.
